# Results as given in patent publication US8372380B2, “In vivo imaging of sulfotransferases” (The Regents of the University of California, priority 2007, dated 2013).
# Experiments:
# sulfotransferase SULT1A1 [1] = biological target: T1, sulfotransferase SULT1A1 (Rattus norvegicus, UniProt P17988); assay: In vivo microPET imaging of sulfotransferase activity and inhibition in rat; parameters: species or system Sprague-Dawley rat
# T1 construct: from tissue; host or cells: living Sprague-Dawley rat (brain, chest, abdomen)
# Description: (§1) A bolus of a radiolabeled tracer is administered intravenously to a non-human primate, rodent, or other non-human mammal, and the distribution of tracer transport activity is followed by radiographic means, e.g., PET, microPET and/or SPECT. For PET, an intravenous dose of the tracer contains ˜0.1-3 mCi/kg (body weight) dissolved in <1 ml of 10% ethanol in saline. The identity of each organ and tissue taking up the tracer can be confirmed by CT scans. Scans can be conducted both with and without administering one or more pharmacological agents, e.g., 2,6-dichloro-4-nitrophenol, quercitin, curcumin, etc.
# FIG. 7 depicts in vivo microPET imaging of sulfotransferase activity and inhibition in a male, Sprague-Dawley rat suffering from renal hypertension, chronic progressive nephropathy, and lung inflammation, using 4-[^18F]-fluoro-3-nitrophenol as a substrate and 2,6-dichloro-4-nitrophenol as an inhibitor. 4-[^18F]-fluoro-3-nitrophenol was administered as a bolus injection (0.5 to 2.0 mCi) and the rat brain was scanned dynamically for 60 min. Subsequently, the chest was scanned for 5 min., followed by a 5 min. scan of the abdomen.
# SULT1E1 = biological target: T2, SULT1E1 (Homo sapiens, UniProt P49888); assay: Substrate sulfonation assay, SULT1E1; assay type: biochemical; settings: in vitro sulfonation
# T2 construct: purchased Sigma; host or cells: sf-9 insect cells (baculovirus)
# T2 sequence (P49888 1-294): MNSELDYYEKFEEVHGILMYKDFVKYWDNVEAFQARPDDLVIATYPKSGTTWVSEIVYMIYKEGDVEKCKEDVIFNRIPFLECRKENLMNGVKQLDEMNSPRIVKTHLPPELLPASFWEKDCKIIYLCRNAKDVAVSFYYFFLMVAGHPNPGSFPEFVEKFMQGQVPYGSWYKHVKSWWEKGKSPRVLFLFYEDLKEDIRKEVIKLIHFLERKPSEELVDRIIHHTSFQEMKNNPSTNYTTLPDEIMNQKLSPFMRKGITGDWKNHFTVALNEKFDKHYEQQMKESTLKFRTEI
# Source text: (§2) β-Naphthol (BN, a reference control), para-nitrophenol (PNP), estradiol (E2), dehydroepiandrosterone (DHEA), dopamine, dithiothreitol (DTT), and MgCl2 were purchased from Sigma (St. Louis, Mo.). Cytosolic extract of sf-9 insect cells infected with a baculovirus containing SULT cDNAs (SULT1A1, SULT1A3, SULT1E1, SULT2A1) were also purchased from Sigma. [^35S]-3′-Phosphoadenosine 5′-Phosphosulfate (PAPS)(1-3 Ci/mmol) was purchased from Perkin Elmer (Waltham, Mass.). Aluminum-backed silica TLC plates were purchased from Whatman.
# (§3) Substrate sulfonation assays were performed using cytosolic sulfotransferases SULT1A1, SULT1A3, SULT1E1, and SULT2A1. Enzyme kinetic parameters were determined by using substrate concentration curves. The sulfonation reaction was carried out using [^35S]-PAPS as the sulfate donor, and the reaction mixture was analyzed using a thin-layer chromatography (TLC) method described in literature (Falany et al., 2006). […] TLC plates were exposed on digital autoradiography plates for 2 hrs and read in with a Fuji BAS-5000 digital autoradiography plate reader. The results were quantitated with the software provided with the scanner. […] Vials were counted using MP-Ecolite+ LS fluid and a Packard Tricarb 2300TR LSC for 5 min per vial. Reactions were monitored for linearity with time and enzyme concentration to ensure the enzyme was the limiting factor. […]
# SULT1A1 = biological target: T3, SULT1A1 (Homo sapiens, UniProt P50225); assay: Substrate sulfonation assay, SULT1A1; assay type: biochemical; settings: in vitro sulfonation
# T3 construct: purchased Sigma; host or cells: sf-9 insect cells (baculovirus)
# Source text: as §2, §3
# sulfotransferase SULT1E1 [2] = assay: In vivo microPET imaging of SULT1E1 expression in rats; parameters: species or system Sprague-Dawley rats; settings: images 15-25 min after injection
# Description: as §1
# (§4) FIG. 5 depicts in vivo microPET imaging of sulfotransferase SULT1E1 expression in healthy and inflamed lungs in 8-9 month old male Sprague-Dawley rats, using the substrate 2-(4′-([^11C]-methylamino)phenyl)-6-hydroxybenzothiazole. On the left are shown the chest and upper abdomen of a healthy control rat; on the right is a rat suffering from renal hypertension, chronic progressive nephropathy, and lung inflammation. Both animals were injected with 2.0-2.5 mCi of activity. The images shown were acquired over the period of 15-25 min after injection. […] Warmer colors represent higher levels of tracer uptake.
# [3] = Plasma metabolite analysis of tracer in rats; assay type: in vivo, Sprague-Dawley rats; settings: rat plasma, after 10-15 min
# Description: as §4
# Metabolite analysis was performed using reverse phase C-18 TLC plates and a mixture of methanol, acetic acid and water (80:5:15, respectively). Plasma was de-proteinated with addition of an equal volume of methanol. The supernatant was spotted on the plates and the plates developed in the mobile phase. The analysis of the plates was performed as described above in the description of the sulfonation assays (Ex. 1-25). Metabolites were identified as follows: […] samples of plasma were mixed with 500-1000 U of either […] (to remove the sulfonated metabolite) or glucoronidase (to remove glucoronidated metabolite). […] The supernatants were analyzed as described above and the results compared with the results for un-treated plasma.
# sulfotransferase SULT1E1 [4] = biological target: T4, sulfotransferase SULT1E1 (Homo sapiens, UniProt P49888); assay: In vivo PET imaging of SULT1E1 expression in humans; settings: PET 20-45 minutes after injection
# T4 construct: from tissue; host or cells: living human subjects (lungs, liver, kidneys)
# T4 sequence (P49888 1-294): T2 sequence (P49888 1-294)
# Description: A bolus of a radiolabeled tracer is administered to a human subject by intravenous injection, and its uptake into a tumor (in the case of cancer), one or more organs of interest, and/or other tissues of the body is followed radiographically. For a 50-70 kg person, 10 mCi of an appropriate tracer from Table 1 or 2 (e.g.) is dissolved in <10 ml 10% ethanol in saline and is injected intravenously, and the distribution of the tracer is followed dynamically with PET for up to 2 hours (multiple whole-body scans at different time intervals or dynamic PET scan of a specific organ). SULT activity in organs and tissues is determined using tracer kinetic modeling from the PET determined tracer uptake data. The anatomical location of tracer uptake in both normal subjects and cancer patients can be determined using CT scans.
# FIG. 6 depicts in vivo PET imaging of sulfotransferase SULT1E1 expression in two adult male humans. […] Increased SULT1E1 expression associated with lung inflammation caused by smoking is clearly visible in the lungs of the smoker. Both subjects were scanned with PET 20-45 minutes after being injected with the tracer 2-(4′-([^11C]-methylamino)phenyl)-6-hydroxybenzothiazole. The smoker received a dose of 10.5 mCi, and the non-smoker received 10.0 mCi. The images were normalized by dividing the signal values with dose injected per kg of body weight.
# [5] = rat brain; Mathis et al., 2004; cited from earlier work
# sulfotransferase SULT1A1 [6] = biological target: T5, sulfotransferase SULT1A1 (Homo sapiens, UniProt P50225); assay: Inhibition of SULT1A1 sulfonation of para-nitrophenol (PNP); assay type: biochemical; settings: inhibition of SULT1A1 sulfonation of 4-nitrophenol; 37° C., 15 min, [35S]-PAPS
# T5 construct: purchased Sigma; host or cells: sf-9 insect cells (baculovirus)
# Source text: as §2
# Substrate sulfonation assays were performed using cytosolic sulfotransferases SULT1A1, SULT1A3, SULT1E1, and SULT2A1. Enzyme kinetic parameters were determined by using substrate concentration curves. The sulfonation reaction was carried out using [^35S]-PAPS as the sulfate donor, and the reaction mixture was analyzed using a thin-layer chromatography (TLC) method described in literature (Falany et al., 2006). Reaction mixtures consisted of 10 μL of substrates, originally dissolved in dimethyl sulfoxide and diluted to 1% with Tris-HCl buffer; 50 mM Tris-HCl buffer, pH 7.4; 0.1% bovine serum albumin; 7.5 mM DTT; and 1 μM [^35S]-PAPS in the final volume of 50 μL. The final concentration of dimethyl sulfoxide was kept at 0.2%. Reactions with SULT1E1 and SULT2A1 were supplemented with 7 mM MgCl2; reactions with SULT1A3 included 1 mM pargyline. Control reactions were performed under identical conditions without addition of substrates. Sulfonation reactions were carried out at 37° C. for 15 min. Enzymatic activity was terminated by precipitation with 50 μL of ice cold methanol and cooling the mixture at −20° C. Subsequently, 20 μL aliquots of the supernatant were spotted on silica gel TLC plates and were developed in t-butanol:acetic acid:water (8:1:1 by volume). Sulfonated products (Rf=0.66±0.05) were well separated from unreacted [^35S]PAPS, which was retained at the origin. TLC plates were exposed on digital autoradiography plates for 2 hrs and read in with a Fuji BAS-5000 digital autoradiography plate reader. The results were quantitated with the software provided with the scanner. Spots were localized and the silica gel was scraped into liquid scintillation vials. Vials were counted using MP-Ecolite+ LS fluid and a Packard Tricarb 2300TR LSC for 5 min per vial. Reactions were monitored for linearity with time and enzyme concentration to ensure the enzyme was the limiting factor.
# In vitro inhibition reactions were performed using the standard SULT1A1 substrate, para-nitrophenol (PNP), against various 4′-substituted 2-phenyl-6-hydroxybenzothiazoles shown in Table 3. PNP was dissolved in 50 mM Tris-HCl buffer (pH 7.4), and inhibitors were dissolved in dimethyl sulfoxide and diluted to 1% dimethyl sulfoxide concentration with the Tris-HCl buffer. […]
# brain SULT1A enzymes = settings: Vietri et al., 2002b, read-out: IC50 for blocking sulfonation of R(−)-apomorphine; cited from earlier work
# T5 sequence (P50225 whole entry): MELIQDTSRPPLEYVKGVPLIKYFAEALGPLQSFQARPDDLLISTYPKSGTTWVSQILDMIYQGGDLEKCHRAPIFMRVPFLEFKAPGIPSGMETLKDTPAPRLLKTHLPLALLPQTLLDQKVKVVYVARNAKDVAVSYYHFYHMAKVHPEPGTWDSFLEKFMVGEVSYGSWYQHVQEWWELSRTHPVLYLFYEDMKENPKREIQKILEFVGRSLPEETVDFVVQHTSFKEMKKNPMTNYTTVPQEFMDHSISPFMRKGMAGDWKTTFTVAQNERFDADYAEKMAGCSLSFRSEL
# T1 sequence (P17988 whole entry): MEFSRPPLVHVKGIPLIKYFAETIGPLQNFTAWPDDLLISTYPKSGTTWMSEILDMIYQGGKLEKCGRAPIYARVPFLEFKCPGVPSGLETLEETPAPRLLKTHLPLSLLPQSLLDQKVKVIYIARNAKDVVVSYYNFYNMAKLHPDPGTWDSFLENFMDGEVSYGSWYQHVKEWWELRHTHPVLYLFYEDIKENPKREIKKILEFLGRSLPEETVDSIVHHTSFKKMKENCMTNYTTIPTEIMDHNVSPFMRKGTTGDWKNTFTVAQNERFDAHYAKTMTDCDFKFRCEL
# T3 sequence (P50225 whole entry): as the sequence (P50225 whole entry) above
compound,measurement,setting,value
"O=[N+]([O-])c1cc(Cl)c(O)c(Cl)c1 [2,6-dichloro-4-nitrophenol]",effect on SULT1A1 activity in vivo (microPET),sulfotransferase SULT1A1 [1]; 5 mg/Kg at the time of the 4-[18F]-fluoro-3-nitrophenol bolus injection,inhibitory effect on SULT1A1 activity
[11CH3]Nc1ccc(-c2nc3ccc(O)cc3s2)cc1 [2-(4′-([^11C]-methylamino)phenyl)-6-hydroxybenzothiazole],substrate for SULT1E1,SULT1E1,"good marker of sulfotransferases, most specifically SULT1E1"
same,substrate for SULT1A1,SULT1A1,not a substrate for SULT1A1
same,tracer uptake in lungs,sulfotransferase SULT1E1 [2]; healthy control rat,indistinguishable from the background
same,tracer uptake in lungs,sulfotransferase SULT1E1 [2]; rat with lung inflammation,increased uptake
same,tracer activity in liver,sulfotransferase SULT1E1 [2]; rats,high level of activity
same,fraction of tracer in sulfated form in plasma,[3],~90%
same,tracer activity in liver and kidneys,sulfotransferase SULT1E1 [4],high level of activity
same,tracer uptake in lungs,sulfotransferase SULT1E1 [4]; versus background (muscles),increased level of uptake compared with the background
same,sulfonation in brain in vivo,[5],sulfonated in the rat brain in vivo
"O=[N+]([O-])c1cc(O)ccc1[18F] [4-[^18F]-fluoro-3-nitrophenol, 4-[^18F]Fluoro-3-nitrophenol]",substrate for SULT1A1 in vivo (microPET),"sulfotransferase SULT1A1 [1]; rat, bolus injection 0.5 to 2.0 mCi",is a substrate for the sulfotransferase SULT1A1
CNc1ccc(-c2nc3ccc(O)cc3s2)cc1 [Compound 14],Ki,sulfotransferase SULT1A1 [6],5.1 ± 0.3 nM
COc1ccc(-c2nc3ccc(O)cc3s2)cc1 [Compound 17],Ki,sulfotransferase SULT1A1 [6],24 ± 2 nM
CC(=O)Nc1ccc(-c2nc3ccc(O)cc3s2)cc1 [Compound 18],Ki,sulfotransferase SULT1A1 [6],100 ± 20 nM
Oc1ccc2nc(-c3ccc(F)cc3)sc2c1 [Compound 19],Ki,sulfotransferase SULT1A1 [6],140 ± 10 nM
O=c1c(O)c(-c2ccc(O)c(O)c2)oc2cc(O)cc(O)c12 [quercitin],IC50,brain SULT1A enzymes,16 ± 2.3 nM
